# Reference: patent US20120095055A1, “HEXAHYDROCYCLOPENTYL[f]INDAZOLE 5-HYDROXYMETHYL ETHANOLS AND DERIVATIVES THEREOF AS SELECTIVE GLUCOCORTICOID RECEPTOR MODULATORS” (Merck Sharp & Dohme, Corp., priority 2009, published 2012)
# Molecular target: T1, human GR (Homo sapiens, UniProt P04150)
# T1 construct: naturally expresses the human GR; endogenous in cells
# T1 sequence (P04150 1-777): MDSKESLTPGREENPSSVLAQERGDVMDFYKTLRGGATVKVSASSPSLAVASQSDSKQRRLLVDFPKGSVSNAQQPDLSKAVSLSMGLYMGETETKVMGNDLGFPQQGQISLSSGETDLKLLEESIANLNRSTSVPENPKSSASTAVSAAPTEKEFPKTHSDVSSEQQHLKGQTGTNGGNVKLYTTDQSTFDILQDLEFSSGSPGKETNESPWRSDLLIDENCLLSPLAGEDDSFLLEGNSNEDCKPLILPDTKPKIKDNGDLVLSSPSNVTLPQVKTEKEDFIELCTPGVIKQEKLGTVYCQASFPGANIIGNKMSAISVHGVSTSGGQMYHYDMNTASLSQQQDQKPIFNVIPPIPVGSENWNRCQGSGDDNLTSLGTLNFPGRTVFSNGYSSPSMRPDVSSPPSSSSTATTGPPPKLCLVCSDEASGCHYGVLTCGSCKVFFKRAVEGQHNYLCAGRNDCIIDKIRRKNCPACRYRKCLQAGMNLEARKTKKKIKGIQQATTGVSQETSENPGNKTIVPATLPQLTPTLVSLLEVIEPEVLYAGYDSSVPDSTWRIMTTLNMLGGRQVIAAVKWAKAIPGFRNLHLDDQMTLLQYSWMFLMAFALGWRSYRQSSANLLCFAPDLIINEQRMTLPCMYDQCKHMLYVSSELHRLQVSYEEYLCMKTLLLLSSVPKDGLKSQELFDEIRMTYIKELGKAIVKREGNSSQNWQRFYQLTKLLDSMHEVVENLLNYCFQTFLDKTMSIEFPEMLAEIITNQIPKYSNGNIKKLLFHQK
# Experiment: Transrepression Assay (GITAR), TNFα-β-lactamase reporter in U937 cells
# Format: cell-based
# Conditions: for Emax: U-937, activity repressed by 100 nM dexamethasone set as 100%; for EC50: inflection point (IP), TNFα promoter β-lactamase reporter, PMA/LPS; for Transrepression U937 Cells GITAR Emax (%): activity repressed by 100 nM dexamethasone set as 100%
# Source text: This assay assesses the ability of test compounds to control transcription from the TNFα-β-lactamase reporter gene in U937 cells, a human myelomonocytic leukemia cell line that naturally expresses the human GR. The assay measures compound dependent-repression of the TNFa promoter linked to a reporter gene.
# The human U937 cells that had been stablely transfected with the TNF-α promoter driving β-lactamase are used for this assay. U937 cells contain an endogenous glucocorticoid receptor (GR). Cells are maintained in RPMI 1640 Growth medium (Gibco Cat#11875-093) containing 25 mM HEPES, 10% FBS, 2 mM L-Glutamine, 1 mM Sodium pyruvate, 25 μg/ml Gentamicin (Gibco Cat#15710-064), 1:1000 2-Mercaptoethanol (Gibco Cat#21985-023) and 0.8 mg/ml G418 (Gibco Cat#10131-027). The density of the cells in the flask needs to be about 1×106-3×10^6/ml at the time of harvest. Usually, the cells are split to 1.2˜1.4×10^5/ml (1:10) 3 days prior to the assay. 50,000 cells/well are plated in 96 well black-walled plates the day of assay. Test compounds are added 10 μL/well, and cells are incubated at 37° C. for 30˜45 min. For assaying compounds, first dilute 1:10 in DMSO to make 1 mM, then further dilute 1:100 in medium to make 10× stock prior to adding to the cells. Add 50 ng/ml PMA (Sigma, cat# P8139) 10 μL/well to a final concentration 5 ng/ml, and 1 μg/ml LPS (Sigma, cat# L4130) 10 μL/well to a final concentration 100 ng/ml. Incubate cells at 37° C. overnight for ˜18 hr. PMA is stored frozen as 100 μg/ml stock in DMSO. Dilute 1:10 in DMSO for a working stock of 10 μg/ml and store at −20 C. For assaying, dilute the 10 μg/ml working stock 1:200 in medium to make a 10× solution (50 ng/ml). Store frozen LPS at 1 mg/ml in PBS, dilute 1:1000 in medium to make 10× (1 μg/ml) for the assay. Add 6× loading buffer (CCF2-AM) 20 μL/well, and incubate at room temperature for 70˜90 min. […] The activity repressed by 100 nM dexamethasone alone is set as 100% activity.
Structure (SMILES),Emax,EC50,Transrepression U937 Cells GITAR Emax (%)
"C[C@]12Cc3cnn(-c4ccc(F)cc4)c3C=C1CC[C@@]2(CO)CC1OC(=O)c2ccccc21 (stereo partly drawn) [Example 11, 3-{[(4αS,5R)-1-(4-fluorophenyl)-5-(hydroxymethyl)-4α-methyl-1,4,4α,5,6,7,7a,8-octahydrocyclopenta[f]indazol-5-yl]methyl}-2-benzofuran-1(3H)-one]",84.6%,241 nM,–
"C[C@]12Cc3cnn(-c4ccc(F)cc4)c3C=C1CC[C@@]2(CO)CC(O)c1ncccc1F (single isomer, unassigned) [Example 10b]",–,4 nM,93.9%
"C[C@]12Cc3cnn(-c4ccccc4)c3C=C1CC[C@@]2(CO)CC(O)c1cccnc1 (single isomer, unassigned) [Example 29b]",–,103 nM,60.9%
"COc1ccc(C(O)C[C@]2(CO)CCC3=Cc4c(cnn4-c4ccc(F)cc4)C[C@@]32C)nc1 (single isomer, unassigned) [Example 24a]",63%,447 nM,–
"Cc1cccc(C(O)C[C@]2(CO)CCC3=Cc4c(cnn4-c4ccc(F)cc4)C[C@@]32C)c1 (single isomer, unassigned) [Example 5b]",–,29 nM,91.8%
"C[C@]12Cc3cnn(-c4ccc(F)cc4)c3C=C1CC[C@@]2(CO)CC(O)c1ccncc1 (single isomer, unassigned) [Example 17b]",–,59.7 nM,83.3%
"C[C@]12Cc3cnn(-c4cccc(F)c4)c3C=C1CC[C@@]2(CO)CC(O)c1cccnc1 (single isomer, unassigned) [Example 27a]",64.2%,598 nM,–
"Cc1cccc(C(O)C[C@]2(CO)CCC3=Cc4c(cnn4-c4ccc(F)cc4)C[C@@]32C)c1 (single isomer, unassigned) [Example 5a]",84.7%,86.1 nM,–
"C[C@]12Cc3cnn(-c4ccc(F)cc4)c3C=C1CC[C@@]2(CO)CC(O)c1ccccn1 (single isomer, unassigned) [Example 1b]",–,24 nM,91.7%
"COc1ccc(C(O)C[C@]2(CO)CCC3=Cc4c(cnn4-c4ccc(F)cc4)C[C@@]32C)nc1 (single isomer, unassigned) [Example 24b]",–,376 nM,57.9%
"C[C@]12Cc3cnn(-c4ccc(F)cc4)c3C=C1CC[C@@]2(CO)CC(O)c1cccnc1 (single isomer, unassigned) [Example 15b]",–,98.5 nM,80.6%
"C[C@]12Cc3cnn(-c4cccc(F)c4)c3C=C1CC[C@@]2(CO)CC(O)c1cccnc1 (single isomer, unassigned) [Example 27b]",–,334 nM,71.9%
"C[C@]12Cc3cnn(-c4ccccc4)c3C=C1CC[C@@]2(CO)CC(O)c1ccccn1 (single isomer, unassigned) [Example 23a]",82.6%,22.8 nM,–
"C[C@]12Cc3cnn(-c4ccc(F)cc4)c3C=C1CC[C@@]2(CO)CC(O)c1ncccc1F (single isomer, unassigned) [Example 10a]",89.2%,16.5 nM,–
"C[C@]12Cc3cnn(-c4ccc(F)cc4)c3C=C1CC[C@@]2(CO)CC(O)C1CCCCC1 (single isomer, unassigned) [Example 18a, 1-cyclohexyl-2-[(4αS)-1-(4-fluorophenyl)-5-(hydroxymethyl)-4α-methyl-1,4,4α,5,6,7-hexahydrocyclopenta[f]indazol-5-yl]ethanol]",93.1%,7.9 nM,–
"C[C@]12Cc3cnn(-c4ccc(F)cc4)c3C=C1CC[C@@]2(CO)CC(O)c1ccc(F)cn1 (single isomer, unassigned) [Example 22a]",90.9%,18.7 nM,–
"Cc1ccc(C(O)C[C@]2(CO)CCC3=Cc4c(cnn4-c4ccc(F)cc4)C[C@@]32C)cc1 (single isomer, unassigned) [Example 2a]",–,137 nM,85.0%
"CC(C)C(O)C[C@]1(CO)CCC2=Cc3c(cnn3-c3ccc(F)cc3)C[C@@]21C (single isomer, unassigned) [Example 14a]",82.2%,1130 nM,–
"C[C@]12Cc3cnn(-c4ccc(F)cc4)c3C=C1CC[C@@]2(CO)CC(O)c1ccccc1Cl (single isomer, unassigned) [Example 3b]",–,6 nM,99.6%
"C[C@]12Cc3cnn(-c4ccc(F)cc4)c3C=C1CC[C@@]2(CO)CC(O)c1ccccc1Cl (single isomer, unassigned) [Example 3a]",93.3%,37.6 nM,–
"COc1cccnc1C(O)C[C@]1(CO)CCC2=Cc3c(cnn3-c3ccc(F)cc3)C[C@@]21C (single isomer, unassigned) [Example 21b]",–,18.7 nM,91.3%
"COc1cccnc1C(O)C[C@]1(CO)CCC2=Cc3c(cnn3-c3cccc(F)c3)C[C@@]21C (single isomer, unassigned) [Example 26b]",–,1510 nM,51.8%
"C[C@]12Cc3cnn(-c4ccc(F)cc4)c3C=C1CC[C@@]2(CO)CC(O)C1CC1 (single isomer, unassigned) [Example 20b, 1-cyclopropyl-2-[(4αS)-1-(4-fluorophenyl)-5-(hydroxymethyl)-4α-methyl-1,4,4α,5,6,7-hexahydrocyclopenta[f]indazol-5-yl]ethanol]",–,573 nM,72.0%
"C[C@]12Cc3cnn(-c4ccccc4)c3C=C1CC[C@@]2(CO)CC(O)c1cccnc1 (single isomer, unassigned) [Example 29a]",66.6%,176 nM,–
"C[C@]12Cc3cnn(-c4ccc(F)cc4)c3C=C1CC[C@@]2(CO)CC(O)c1cccc(C(F)(F)F)c1 (single isomer, unassigned) [Example 7b]",–,44.7 nM,98.4%
"C[C@]12Cc3cnn(-c4ccc(F)cc4)c3C=C1CC[C@@]2(CO)CC(O)c1ccncc1 (single isomer, unassigned) [Example 17a]",86.1%,75.3 nM,–
"C[C@]12Cc3cnn(-c4ccc(F)cc4)c3C=C1CC[C@@]2(CO)CC(O)C(F)(F)F (single isomer, unassigned) [Example 28a]",81.2%,54.3 nM,–
"C[C@]12Cc3cnn(-c4ccc(F)cc4)c3C=C1CC[C@@]2(CO)CC(O)c1cccc(Cl)c1 (stereo partly drawn) [Example 8, 1-(3-chlorophenyl)-2-[(4αS,5R)-1-(4-fluorophenyl)-5-(hydroxymethyl)-4α-methyl-1,4,4α,5,6,7-hexahydrocyclopenta[f]indazol-5-yl]ethanol]",89.9%,21.4 nM,–
"C[C@]12Cc3cnn(-c4ccc(F)cc4)c3C=C1CC[C@@]2(CO)CC(O)C1CCCCC1 (single isomer, unassigned) [Example 18b, 1-cyclohexyl-2-[(4αS)-1-(4-fluorophenyl)-5-(hydroxymethyl)-4α-methyl-1,4,4α,5,6,7-hexahydrocyclopenta[f]indazol-5-yl]ethanol]",–,25.7 nM,97.7%
"C[C@]12Cc3cnn(-c4ccccc4)c3C=C1CC[C@@]2(CO)CC(O)c1ccccn1 (single isomer, unassigned) [Example 23b]",–,49.6 nM,83.7%
